These results are taken from patent US20170165322A1, “PEPTIDE AND SMALL MOLECULE AGONISTS OF EPHA AND THEIR USES IN DISEASE” (CASE WESTERN RESERVE UNIVERSITY, priority 2006, published 2017).

A value given as a limit tells only on which side of the number the result lay.

One assay concerns H460 xenograft. In words: H460 xenograft growth in nude mice. It is filed as in vivo, human. The note with it: ephrin-A1-Fc 5 μg/g i.p. once every two days, five times, Alimta 150 mg/kg i.p. daily x 5 days. The protocol: FIGS. 16(A-B) illustrate, A) Systemic treatment with ephrin-A1-Fc, but not control Fc, inhibited the growth of H1975 NSCLC xenografts. Eight-week old NCR nude mice were injected with 2×10^6 H1975 cells s.c. into the hind flanks. One week later, when the tumors had reached an average of about 100 mm3, mice (5/group) were injected i.p. twice a week with Fc or ephrin-A1-Fc at 2.5 or 5.0 μg/g. Equal volume of PBS was used as control. The day of the first treatment was designated as day 1. Rapid tumor growth necessitated termination of experiment at day 18. B) Comparison between ephrin-A1-Fc and Alimta for therapeutic efficacy on H460 xenografts. Cell implantation and treatment were the same as in (A). Alimta/Pemetrexed was injected at 150 mg/kg, i.p daily×5 days), or ephrin-A1-Fc (5 μg/g, mouse, i.p, once every two days, for five times). Note ephrin-A1-Fc treatment achieved better efficacy of tumor growth inhibition than Alimta, a new drug for lung cancer therapy in this cell type. * Indicates significant difference between PBS and ephrin-A1-treated groups, p<0.05.
We next compared ephrin-A1-Fc and Alimta/Pemetrexed for therapeutic efficacy against H460 xenograft. H460 cells are derived from a lung adenocarcinoma that express moderate levels of EphA2 (not shown). […]
(Xenograft models place foreign cells or tissue in a host animal.)

A further assay relates to Akt. In words: Immunoblot of p-Akt (Ser473) in DU145 cells. The note with it: DU145-vector, then ephrin-A1 30 min. It is filed as cell-based, human. How it is done: (§1) A Immunoblot analysis of the expression and tyrosine phosphorylation of EphA2 in DU145 cells. Parental DU145 cells were stably infected with a retroviral vector expressing wild-type EphA2 or empty vector. Clonal puromycin-resistant cells were isolated and expanded. The selected cells at 70-80% confluence were stimulated with 2 μg/ml ephrin-A1-Fc for the indicated times. The total cell lysates were resolved by SDS-PAGE and then probed with rabbit polyclonal anti-p-EphA/B and anti-EphA2 antibodies. […] The cells were treated as described in (A). Cell lysates were subject to immunoblot with the indicated antibodies.
(§2) DU145-vector cells were pretreated with okadaic acid (10, 50, and 250 nM) for 1 h, followed by stimulation with ephrin-A1-Fc for 30 min. The total cellular lysates were prepared and subjected to immunoblot analyses as described in FIG. 1 using the indicated antibodies. Notes: Okadaic acid inhibits only PP2A at low concentrations (<100 nM), but it inhibits both PP1 and PP2A at higher concentrations (>100 nM).
(§3) A. Cells were treated with rapamycin (1 nM) in the absence or presence of ephrin-A1 (2 μg/ml) for the indicated times Immunoblot analysis was performed as described above. […]
On the technique in general: In western blotting, separated proteins are transferred to a membrane and probed.

The test system of a further assay is ERK1/2. Description: Immunoblot of p-ERK1/2 in DU145 cells. The note with it: DU145-vector, okadaic acid pretreatment 1 h, then ephrin-A1 30 min. The format is cell-based, human. The protocol:
as §1, §2, §3

The next assay relates to PP2A. The note with it: low concentrations; cited from earlier work.
The test system of the next assay is PP1. The note with it: higher concentrations; cited from earlier work.

With `Nc1nc2[nH]cc(CCc3ccc(C(=O)N[C@@H](CCC(=O)O)C(=O)O)cc3)c2c(=O)[nH]1` [Alimta, Pemetrexed], the “growth of H460 xenograft” value with H460 xenograft is given as “minimal effects”.

As for `C=C1[C@@H](O)[C@@H]2O[C@]3(CC[C@H](/C=C/[C@@H](C)[C@@H]4CC(C)=C[C@@]5(O[C@H](C[C@@](C)(O)C(=O)O)CC[C@H]5O)O4)O3)CC[C@H]2O[C@@H]1[C@@H](O)C[C@H](C)[C@H]1O[C@@]2(CCCCO2)CC[C@H]1C` [okadaic acid], the “effect on Akt dephosphorylation induced by EphA2 activation” value is recorded as “completely blocked” in the assay with Akt (okadaic acid 250 nM pretreatment 1 h); “did not affect Akt dephosphorylation” in the assay on Akt (okadaic acid 10 and 50 nM pretreatment 1 h). For the same compound, in the assay on ERK1/2, the “effects on ERK1/2 under the same conditions” value was “not as pronounced”. The “concentrations at which only PP2A is inhibited” value with PP2A is under 100 nM. The “concentrations at which both PP1 and PP2A are inhibited” value with PP1 is over 100 nM.
